Experiments:
[1] = Dynamic Vapor Sorption (DVS) analysis; format: physicochemical; details: between 0-90% relative humidity, 25° C.
Procedure: Dynamic Vapor Sorption (DVS). DVS experiments were conducted on a Surface Measurement Systems DVS-HT at 25° C. The instrument was operated in step mode and the relative humidity was increased in 10% RH increments from 40% RH to 90% RH, then decreased from 90% RH to 0% RH, then increased from 0% RH to 90% RH, then decreased from 90% RH to 0% RH. An extra step at 75% RH was included in each cycle. The mass equilibrium criterion was set at 0.005% change in mass over time (dm/dt) prior to each humidity level. A minimum step time of 10 minutes and a maximum step time of 240 minutes were specified.

[2] = Physical stability of the crystal form on exposure to ambient conditions or elevated humidity; format: physicochemical

- weight gain by DVS [1]: up to 2.5 % wt
- physical stability at elevated humidity (75% or 95% RH) ([2]; 75% or 95% RH, 5 days): physically stable
- physical stability at 75-97% relative humidity ([2]; 75-97% relative humidity, five days): physically stable
- physical stability at ambient conditions ([2]; ambient conditions, at least two weeks): physically stable
Compound: [2H]C([2H])([2H])C(c1cc2nnc(-c3cc(F)ccc3F)n2nc1OCc1ncnn1C)(C([2H])([2H])[2H])C([2H])([2H])[2H] [Form 2, 7-(tert-Butyl-d9)-3-(2,5-difluorophenyl)-6-((1-methyl-1H-1,2,4-triazol-5-yl)methoxy)-[1,2,4]triazolo[4,3-b]pyridazine]
